{"source": "paper PMC9321043", "about": "“Synthesis, Structure–Activity Relationships, and Parasitological Profiling of Brussonol Derivatives as New Plasmodium falciparum Inhibitors” (Pharmaceuticals, 2022)", "key": {"P. falciparum": {"test_system": "P. falciparum", "assay": "Speed-of-action assay", "format": "cell-based, Plasmodium falciparum", "procedure": "The speed-of-action assay assesses the inhibitory activity of the tested compounds after 24, 48, and 72 h of drug exposure. […] Moreover, to confirm the speed-of-action, the morphological development of the parasite in parallel with the IC50 assessment was verified. The parasites in the negative control wells developed according to the expected timeline (Figure 5a). […] Brussonol caused parasite death within the first 24 h of incubation as observed for artesunate (Figure 5a).\nIn this method, three 96-well plates were prepared by adding 180 µL of the parasite’s inoculum with 0.5% parasitemia and 2% hematocrit. A serial dilution of the compounds was added to each plate; the starting concentration for brussonol was 6× IC50, while for artesunate and pyrimethamine (fast- and slow-acting controls, respectively) were 10× IC50. In addition, a positive and negative control, which corresponded to parasite cultures with no addition of inhibitor and non-parasitized erythrocytes, respectively, were used for the parasite’s control growth. Each plate was treated for a different period (24, 48, or 72 h), and the first two plates were washed twice with fresh medium to remove the inhibitor, followed by incubation of 48 and 24 h, respectively. […] A statistical analysis using a one-way ANOVA test was done to compare each time point using GraphPad Prism version 8.0.1 for Windows, GraphPad Software, San Diego, California USA, www.graphpad.com, accessed on 1 February 2022. In parallel, the morphological development of the parasite under the compounds’ pressure was assessed by adding the compounds tested at the highest concentration evaluated. Blood smears of each well were made and stained at time points 0, 24, 48, and 72 h."}, "[1]": {"test_system": "cytosolic Ca^2+ in P. falciparum", "assay": "[Ca2+]cyt measurements in isolated parasites loaded with Fluo-4AM", "format": "cell-based, Plasmodium falciparum", "procedure": "One of the compounds identified in the structural similarity search was the cyclopiazonic acid (CPA) (Figure 8a). […] Because of that, brussonol activity on the modulation of the SERCA pump was investigated. To assess the effect of brussonol on calcium mobilization in P. falciparum intraerythrocytic stages, isolated parasites loaded with Fluo-4-AM were exposed to 10 μM brussonol in MOPS Ca^2+ buffer. […] To verify if the brussonol-elicited [Ca^2+]cyt increment originated from the endoplasmic reticulum (ER), targeting the PfSERCA pump, CPA was added before the addition of brussonol. […] In the brussonol-pretreated parasites, the addition of CPA still increased the cytosolic Ca^2 + level (30 ± 5 nM) (Figure 8d).\nIsolated parasites were incubated for 1 h at 37 °C with 5 μM of Fluo-4AM in 1 mL MOPS buffer (116 mM NaCl, 5.4 mM KCl, 0.8 mM MgSO4, 5.5 mM D-glucose, 50 mM MOPS, and 2 mM CaCl2, pH 7.2), with 1 mM probenecid to minimize compartmentalization and extrusion of probe. The parasites were washed three times with the same buffer and transferred to a quartz cuvette. Intracellular calcium was measured continuously using a Hitachi F-7000 spectrofluorimeter (Tokyo, Japan) by measurement of the fluorescence (λex = 488 nm and λem = 530 nm) at 37 °C, under agitation. When indicated, 10 µM of cyclopiazonic acid (CPA) or 10 µM of brussonol were added to the cuvette. Maximal fluorescence (Fmax) was determined after the lysis of with digitonin 0.15% (m/v), and minimal fluorescence (Fmin) was determined by adding 25 mM EGTA in 3 M Tris, pH 8.8, until no further decrease in fluorescence was observed. The cytosolic calcium concentration ([Ca^2+]cyt) was calculated from the fluorescence data (F) using a Kd value of 345 nM using the formula:Ca^2 +cyt = 345 × [(F − Fmin)/(Fmax − F)]\nThe results (n = 2) were analyzed through One-Way ANOVA with Tukey post-test. All compounds described here were purchased from Sigma-Aldrich (verificar local)."}, "P. knowlesi": {"test_system": "P. knowlesi", "assay": "In vitro evaluation against P. knowlesi, NanoLuc luminescence", "format": "cell-based", "conditions": "Plasmodium knowlesi, 40 h", "procedure": "The P. falciparum strains were cultivated in human blood cells (hRBC) O^+, while P. knowlesi was cultivated in rhesus red blood cells (rRBC) as described. P. falciparum complete RPMI (consisting of RPMI-1640, supplemented with 0.2% NaHCO3, 25 mM HEPES (pH 7.4), 11 mM D-glucose, 10 mg/L hypoxanthine, 25 mg/L gentamicin, and 0.5% (m/v) AlbuMAX II). The parasitemias of these cultures were maintained below 10% with 2.5% hematocrit. P. knowlesi complete RPMI (consisting of RPMI-1640 supplemented with 25 mM HEPES, […] hypoxanthine, 0.26% NaHCO3, 10 mg/L gentamicin, and 1% Albumax II). This culture was maintained with RBCs up to 5% hematocrit. The culture medium was changed daily, and all cultures were maintained under a 90% N2/5% CO2/5% O2 gas mixture at 37 °C. All compounds were purchased from Sigma-Aldrich (Cotia, Brazil).\nBlood-stage P. knowlesi cultures were diluted to 0.5% parasitemia and brought to 2% hematocrit for growth in 96-well plates containing the desired drug concentration series (200 µL of culture/well). […] Parasite growth in the plates was measured by luminescence (NanoLuc method). […] The plates were then incubated for 3 min at room temperature and the luminescence was assessed using a plate luminometer (Molecular Devices, San Jose, CA, USA) with 1 s integration time. Luminescence readings were normalized to values from control wells containing no drug. […]"}}}
{"molecule": "CC(C)c1cc2c(c(O)c1O)C[C@@]13CCCC(C)(C)[C@@H]1C[C@@H]2O3", "note": "[Compound 1, brussonol]", "values": [{"measurement": "speed of action", "setting": "P. falciparum; IC50 compared after 24, 48 and 72 h of drug exposure", "result": "fast-acting in vitro inhibition"}, {"measurement": "time of parasite death (morphological development, pyknotic nuclei)", "setting": "P. falciparum; highest concentration evaluated, Giemsa smears at 0, 24, 48, 72 h", "result": "≤ 24", "unit": "h"}, {"measurement": "[Ca^2+]cyt rise after CPA pretreatment", "setting": "[1]; 10 µM brussonol added after 10 µM CPA reached a plateau", "result": "19 ± 8", "unit": "nM"}, {"measurement": "[Ca^2+]cyt rise", "setting": "[1]; 10 µM compound alone, MOPS Ca^2+ buffer, relative to basal level", "result": "19 ± 4", "unit": "nM"}, {"measurement": "IC50", "setting": "P. knowlesi", "result": "20 ± 4", "unit": "µM"}]}
